Earlier results in patent publication US10633811B1, “Apparatus and method for collecting and disposing of pet waste” (COSMIC PET LLC, priority 2017, dated 2020).

Key:
Campylobacter jejuni = conditions: strain not given
C. jejuni C338 = conditions: Table 3, single compounds; Nutrient Broth No. 2, 37° C., Tween 80 0.002% vol/vol
C. jejuni 3393 = conditions: Table 3, single compounds; Nutrient Broth No. 2, 37° C., Tween 80 0.002% vol/vol
C. coli ATCC 43484 = conditions: Table 3, single compounds; Nutrient Broth No. 2, 37° C., Tween 80 0.002% vol/vol
E. coli O26 = conditions: Table 3, single compounds; Nutrient Broth No. 2, 37° C., Tween 80 0.002% vol/vol
[1] = test system: S. typhimurium ATCC 14028; conditions: Table 3, single compounds; Nutrient Broth No. 2, 37° C., Tween 80 0.002% vol/vol
E. faecalis ATCC 29212 = conditions: Table 3, single compounds; Nutrient Broth No. 2, 37° C., Tween 80 0.002% vol/vol
[2] = test system: Pseudomonas aeruginosa PAO1; conditions: CAMHB, 0.1% Tween 80
Campylobacter spp. = conditions: against Campylobacter spp., E. coli, S. typhimurium, and E. faecalis

Row | Compound | C.jejuni 108 MIC (C.jejuni 108) [µM] | C.jejuni 81116 MIC (C.jejuni 81116) [µM] | concentration that inhibits Campylobacter jejuni (Campylobacter jejuni) [mM] | C. jejuni C338 (MIC %) (C. jejuni C338) [%] | C. jejuni 3393 (MIC %) (C. jejuni 3393) [%] | C. coli ATCC 43484 (MIC %) (C. coli ATCC 43484) [%] | E. coli O26 (MIC %) (E. coli O26) [%] | S. typhimurium ATCC 14028 (MIC %) [1] [%] | E. faecalis ATCC 29212 (MIC %) (E. faecalis ATCC 29212) [%] | MIC [2] [%] | antimicrobial activity among single compounds (Campylobacter spp.)
1 | Cc1ccc(C(C)C)cc1O [Carvacrol] | 300 to 400 | 300 to 400 | 0.3 to 0.4 | – | – | – | – | – | – | – | –
2 | α-Bisabolol | – | – | – | 0.5 | 0.125 | 0.5 | 2 | >2 | >2 | – | –
3 | CC12CCC(CC1)C(C)(C)O2 [Cineole] | – | – | – | 0.25 | 0.25 | 0.25 | 1 | 2 | >2 | – | –
4 | C=CCc1ccc(O)c(OC)c1 [Eugenol] | – | – | – | – | – | – | – | – | – | >5 | –
5 | C=CC(C)(O)CCC=C(C)CCC=C(C)C (stereo not shown) [Nerolidol] | – | – | – | 0.5 | 0.5 | 1 | >2 | >2 | >2 | – | –
6 | CC1=CC=C(C(C)C)CC1 [α-Terpinene] | – | – | – | 0.25 | 0.125 | 0.125 | >2 | >2 | >2 | – | –
7 | CC1=CCC(O)(C(C)C)CC1 (stereo not shown) [Terpinen-4-ol] | – | – | – | 0.06 | 0.06 | 0.06 | 0.06 | 0.06 | 0.5 | – | highest activity
8 | C=CC(C)(O)CCC=C(C)C (stereo not shown) [Linalool] | – | – | – | – | – | – | – | – | – | >5 | –
9 | O=CC=Cc1ccccc1 [Cinnamaldehyde] | – | – | – | – | – | – | – | – | – | 0.1 | –
